Measurements reported in US20020156023A1, “Lometrexol combination therapy” (Tularik Inc., priority 2000, published 2002).
Where a name gives a salt, the structure may show the parent alone.

Tests used:
[1] = cited from earlier work
[2] = cited from earlier work; remark: listed apart in the source
[3] = Storage stability of drug product / reconstituted solution; assay type: physicochemical; conditions: reconstituted with 0.9% sodium chloride to approximately 10 mg/mL; vials contain no preservative
Procedure: Lometrexol sodium for injection is supplied for the study as a lyophilised off-white crystalline solid in single-use vials containing either 50 mg or 200 mg of lometrexol sodium. Vials are stored at room temperature and protected from light. Lometrexol sodium is reconstituted with 0.9% sodium chloride for injection to a concentration of approximately 10 mg/mL. […] Lometrexol sodium is not known to be a vesicant. Lometrexol sodium is administered on Day 1 of every 21-day cycle as a rapid (i.e., 30 to 60 seconds) intravenous bolus immediately prior to the dose of carboplatin. At each dose level shown in Table 1, the appropriate dose of lometrexol sodium is based on the patient's actual calculated body surface area (BSA) at the beginning of each cycle. Note: If the patient's BSA is >2.0 m^2 the dose is calculated using a maximum BSA of 2.0 m^2.
Doxorubicin HCl is available commercially available from several manufacturers in liquid or lyophilised form. The lyophilised powder is stable for 2 years when stored at room temperature and away from direct light. The commercial solution formulations must be stored under refrigeration. […] At each dose level shown in Table 2, the appropriate dose of doxorubicin is based on the patient's actual calculated body surface area (BSA) at the beginning of each 21-day cycle. […]

A549 cells = assay: MTT cell proliferation assay, kinase inhibitor plus lometrexol, A549 cells; assay type: cell-based; conditions: for IC50 in A549 cells in the presence of increasing concentrations of lometrexol: 48 hours incubation, MTT, IC50 calculated from the untreated cells, FIG. 1 and FIG. 2
Procedure: (§1) A549 and MDA-MB-231 cells were obtained from the ATCC. Cells were propagated in 75 cm^2 flasks in RPMI 1640 medium with 10% fetal bovine serum, 1% penicillin/streptomycin, and 1% glutamine. To initiate the experiment, cells were plated into 96-well plates at 3000 cells/well with the top and bottom rows containing media only as a negative control. The cells were incubated at 37° C. for 15 hours to allow the cells to adhere. After 15 hours, freshly prepared solutions of lometrexol and the appropriate kinase inhibitor (AG1478 or indirubin-3′-monoxime) at the desired dose were added to the media in varying concentrations in a 5×8 matrix of concentrations. Each plate also contained wells that contained medium only and no added compound. The cells were then incubated for 48 hours with the compounds. The relative cell number was determined using the cell proliferation assay reagent MTT. This reagent is converted by mitochondrial dehydrogenases to a colored formazan product that is then quantified by spectrophotometric analysis. […] The relative effect of the compounds was determined by the percentage of the untreated control cells.
The IC50 value was calculated from the untreated cells. […]. […] The data are presented as % growth relative to cells treated with lometrexol alone. The total incubation time with the compounds was 48 hours.

MDA-MB-231 cells = assay: MTT cell proliferation assay, kinase inhibitor plus lometrexol, MDA-MB-231 cells; assay type: cell-based; conditions: showing only mild growth inhibition by EGF
Procedure: as §1, with “cells. […]” for “cells.”

phosphorylated EGFR = assay: EGFR phosphorylation in stimulated A549 cells (immunoprecipitation, western blot, densitometry); assay type: cell-based; conditions: 24 hours, then 10% fetal bovine serum + 50 ng/ml EGF for 3 hours, FIG. 4
Procedure: The A549 lung adenocarcinoma cell line was grown under normal cell culture conditions. The cells were plated in 100 mm^2 dishes in RPMI 1640 culture medium containing 1% penicillin/streptomycin, 1% glutamine and 10% fetal bovine serum. The cells were allowed to grow to >95% confluence. Thereafter, the cells were rinsed twice with phosphate-buffered saline followed by the addition of low-serum medium (RPMI 1640 with 1% penicillin/streptomycin and 0.5% fetal bovine serum).
Lometrexol was added in amounts sufficient to achieve incubation concentrations of 0.004, 0.02, 0.1, 0.5 and 2.5 μg/ml. The cells were incubated in the low-serum medium with lometrexol for 24 hours. After the 24-hour incubation, the concentration of fetal bovine serum was increased to 10%, and 50 ng/ml EGF was added to the cells in the presence of lometrexol. The cells were incubated with these stimulants (fetal bovine serum and EGF) for 3 hours. […] The immunoprecipitated protein was separated by SDS-PAGE, and the amount of phosphorylated EGFR was determined by western blot analysis of the resulting gel using chemiluminescent detection. The blot was probed with an antibody that is specific for the activated, phosphorylated form of EGFR (Chemicon, Temecula, Calif.), and the resulting photographic film was analyzed by densitometry.

[4] = tested on: ATP concentration in A549 cells; assay: Cellular ATP by luminescent method CellTiter Glo in A549 cells; assay type: cell-based; conditions: 24 hours incubation with lometrexol, FIG. 5, average of triplicate measurements
Procedure: A549 cells were propagated in 75 cm^2 flasks in RPMI 1640 medium with 10% fetal bovine serum, 1% penicillin/streptomycin, and 1% glutamine. To initiate the experiment, cells were plated into 96-well plates at 3000 and 10,000 cells/well with the top and bottom rows containing media only as a negative control. The cells were incubated at 37° C. for 15 hours to allow the cells to adhere. After 15 hours, freshly prepared solutions of lometrexol at the desired dose were added to the media in varying concentrations. Each plate also contained wells that contained medium only and no added compound. The cells were then incubated for 24 hours and the amount of ATP was determined by a luminescent method, CellTiter Glo™ (Promega, Madison, Wis.). Concurrently, the cell number was determined in duplicate rows so that the relative ATP concentration per number of cells could be determined. As depicted in FIG. 5 (average of triplicate measurements), the ATP concentration per million cells was decreased in cells treated with lometrexol at concentrations similar to those where the EGFR phosphorylation was effected and at concentrations similar to those which potentiate kinase inhibitors.

COc1cccc2c1C(=O)c1c(O)c3c(c(O)c1C2=O)C[C@@](O)(C(=O)CO)C[C@@H]3O[C@H]1C[C@H](N)[C@H](O)[C@H](C)O1 [Doxorubicin HCl]
storage time of reconstituted solution ([1]; reconstituted with sterile water for injection or 0.9% sodium chloride): up to 24 hours | stability of lyophilised powder ([1]; stored at room temperature and away from direct light): 2 years

Nc1ccn([C@@H]2O[C@H](CO)[C@@H](O)C2(F)F)c(=O)n1 [Gemcitabine HCl]
solubility in ethanol and polar organic solvents ([2]; ethanol and polar organic solvents): insoluble | solubility in methanol ([2]; methanol): slightly soluble | solubility in water ([2]; water): soluble

Nc1nc2c(c(=O)[nH]1)C[C@@H](CCc1ccc(C(=O)N[C@@H](CCC(=O)O)C(=O)O)cc1)CN2 [Lometrexol sodium]
time to use after reconstitution [3]: ≤ 1 h

Nc1nc2c(c(=O)[nH]1)CC(CCc1ccc(C(=O)N[C@@H](CCC(=O)O)C(=O)O)cc1)CN2 (stereo partly shown) [lometrexol, 5,10-dideazatetrahydrofolic acid]
lometrexol potentiation of kinase inhibitor growth inhibition (A549 cells; cell line sensitive to EGF stimulation): potentiation is observed | lometrexol potentiation of kinase inhibitor growth inhibition (MDA-MB-231 cells): no observed potentiation | relative amount of phosphorylated-EGFR per mg protein in the cell lysate (phosphorylated EGFR; lometrexol 0.004, 0.02 and 0.1 μg/ml): 37-56 % of control | relative phosphorylated-EGFR (phosphorylated EGFR; lometrexol 0.5 and 2.5 μg/ml): ≥ 3 % of the activated-control | ATP concentration per million cells [4]: decreased

COc1cc2ncnc(Nc3cccc(Cl)c3)c2cc1OC [tyrphostin AG1478, 4-(3-chloroanilino)-6,7-dimethoxyquinazoline]
IC50 in A549 cells in the presence of increasing concentrations of lometrexol (A549 cells): decrease in IC50

indirubin-3′-monoxime
IC50 in A549 cells in the presence of increasing concentrations of lometrexol (A549 cells): decrease in IC50
